Assay results published in patent US9376418B2, “Substituted pyridine spleen tyrosine kinase (SYK) inhibitors” (Merck Sharp & Dohme Corp., priority 2012, dated 2016).

Target: T1, recombinant human GST-SYK (Homo sapiens, UniProt P43405)
T1 construct: purchased Carna Biosciences 08-176
Test: Homogeneous Time-Resolved Fluorescence (HTRF) assay for the recombinant human Syk enzyme
Format: biochemical
Conditions: HTRF assay, recombinant human GST-SYK; IC50 given as class symbols; read-out: rhSYK Activity
Method: Homogeneous Time-Resolved Fluorescence (HTRF) Assay for the Recombinant Human Syk Enzyme
A recombinant GST-hSYK fusion protein was used to measure potency of compounds to inhibit human Syk activity. The recombinant human GST-SYK (Carna Biosciences #08-176) ([…]) was incubated with various concentrations of the inhibitor diluted in DMSO (0.1% final concentration) for 10 minutes at room temperature in 15 mM Tris-HCl (pH 7.5), 0.01% tween 20, 2 mM DTT in 384 well plate format. To initiate the reaction the biotinylated substrate peptide (250 nM final concentration) that contains the phosphorylation site for Syk was added with magnesium (5 mM final concentration) and ATP (25 μM final concentration). Final volume of the reaction was 10 μL. Phosphorylation of the peptide was allowed to proceed for 45′ at room temperature. To quench the reaction and detect the phosphorylated product, 2 nM of a Europium-anti-phosphotyrosine antibody (Perkin Elmer #AD0161) and 70 nM SA-APC (Perkin-Elmer #CR130-100) were added together in 15 mM Tris pH 7.5, 40 mM EDTA, 0.01% tween 20. Final volume of the quenching solution was 10 μL. The resulting HTRF signal was measured after 30 minutes on an EnVision (Perkin-Elmer) reader using a time-resolved fluorescence protocol.

| Compound | IC50 [nM] |
| --- | --- |
| Cc1cc(Nc2nccc(C(F)(F)F)n2)cc(-c2ccc(CCC(=O)O)cn2)c1 [Example 2.30, 3-[6-(3-methyl-5-{[4-(trifluoromethyl)pyrimidin-2-yl]amino}phenyl)pyridin-3-yl]propanoic acid] | < 100 |
| Cc1cc(Nc2nccc(C(F)(F)F)n2)cc(-c2ccc([C@]3(O)CC[C@@H](O)CC3)nc2)c1 [Example 9.58, cis-1-[5-(3-methyl-5-{[4-(trifluoromethyl)pyrimidin-2-yl]amino}phenyl)pyridin-2-yl]cyclohexane-1,4-diol] | < 100 |
| CNC(=O)CCNc1ccc(-c2cc(C)cc(Nc3nccc(C(F)(F)F)n3)c2)cn1 [Example 7.62, N-methyl-N~3~-[5-(3-methyl-5-{[4-(trifluoromethyl)pyrimidin-2-yl]amino}phenyl)pyridin-2-yl]-beta-alaninamide] | < 100 |
| Cc1cc(Nc2nccc(C(F)(F)F)n2)cc(-c2ccnc(N3CCNC(=O)CC3)c2)c1 [Example 15.42, 1-[4-(3-methyl-5-{[4-(trifluoromethyl)pyrimidin-2-yl]amino}phenyl)pyridin-2-yl]-1,4-diazepan-5-one] | < 100 |
| Cc1cc(Nc2nccc(C(F)(F)F)n2)cc(-c2ccc(CC(C)(C)C(=O)O)nc2)c1 [Example 22.3, 2,2-Dimethyl-3-[5-(3-methyl-5-{[4-(trifluoromethyl)pyrimidin-2-yl]amino}phenyl)pyridin-2-yl]propanic acid] | < 100 |
| Cc1cc(Nc2nccc(C(F)(F)F)n2)cc(-c2ccc(N3CC(C4CCC(C(=O)O)CC4)C3)nc2)c1 (stereo not shown) [Example 7.145, 4-{1-[5-(3-methyl-5-{[4-(trifluoromethyl)pyrimidin-2-yl]amino}phenyl)pyridin-2-yl]azetidin-3-yl}cyclohexanecarboxylic acid] | < 100 |
| Cc1cc(Nc2nccc(C(F)(F)F)n2)cc(-c2ccc(N(C)CCO)nc2)c1 [Example 7.30, 2-{methyl[5-(3-methyl-5-{[4-(trifluoromethyl)pyrimidin-2-yl]amino}phenyl)pyridin-2-yl]amino}ethanol] | < 100 |
| Cc1cc(Nc2nccc(C(F)(F)F)n2)cc(-c2ccnc(NC3CNC(=O)C3)c2)c1 (stereo not shown) [Example 15.74, 4-{[4-(3-methyl-5-{[4-(trifluoromethyl)pyrimidin-2-yl]amino}phenyl)pyridin-2-yl]amino}pyrrolidin-2-one] | < 100 |
| COc1ccnc(Nc2cc(C)cc(-c3ccnc(N)c3)c2)n1 [Example 4.1, N-[3-(2-aminopyridin-4-yl)-5-methylphenyl]-4-methoxypyrimidin-2-amine] | < 100 |
| Cc1cc(Nc2nccc(C(F)(F)F)n2)cc(-c2ccc(C(=O)Nc3cncnc3)nc2)c1 [Example 16.29, 5-(3-methyl-5-{[4-(trifluoromethyl)pyrimidin-2-yl]amino}phenyl)-N-pyrimidin-5-ylpyridine-2-carboxamide] | 100 to 1000 |
| Cc1cc(Nc2nccc(C(F)(F)F)n2)cc(-c2ccc(N3CCCNC(=O)C3)nc2)c1 [Example 2.70, 4-[5-(3-methyl-5-{[4-(trifluoromethyl)pyrimidin-2-yl]amino}phenyl)pyridin-2-yl]-1,4-diazepan-2-one] | < 100 |
| Cc1cc(Nc2nccc(C(F)(F)F)n2)cc(-c2ccc(-c3cn(CC(=O)O)nn3)nc2)c1 [Example 25.2, {4-[5-(3-Methyl-5-{[4-(trifluoromethyl)pyrimidin-2-yl]amino}phenyl)pyridin-2-yl]-1H-1,2,3-triazol-1-yl}acetic acid] | < 100 |
| Cc1cc(Nc2nccc(C(F)(F)F)n2)cc(-c2ccnc(NCC3CCC(=O)N3)c2)c1 (stereo not shown) [Example 15.32, 5-({[4-(3-methyl-5-{[4-(trifluoromethyl)pyrimidin-2-yl]amino}phenyl)pyridin-2-yl]amino}methyl)pyrrolidin-2-one] | < 100 |
| Cc1cc(Nc2nccc(C)n2)cc(-c2ccc(C(C)(O)[C@H]3CC[C@H](C(=O)O)CC3)nc2)c1 (single isomer, unassigned) [Example 9.26, trans-4-[(1R or 1S)-1-hydroxy-1-(5-{3-methyl-5-[(4-methylpyrimidin-2-yl)amino]phenyl}pyridin-2-yl)ethyl]cyclohexanecarboxylic acid] | < 100 |
| Cc1cc(Nc2nccc(C(F)(F)F)n2)cc(-c2cncc(C3(O)CCC(C(=O)O)C3)c2)c1 (stereo not shown) [Example 9.5, 3-Hydroxy-3-[5-(3-methyl-5-{[4-(trifluoromethyl)pyrimidin-2-yl]amino}phenyl)pyridin-3-yl]cyclopentanecarboxylic acid] | < 100 |
| Cc1cc(Nc2nccc(C(F)(F)F)n2)cc(-c2ccc(NC3(C(=O)O)CCC3)nc2)c1 [Example 7.78, 1-{[5-(3-methyl-5-{[4-(trifluoromethyl)pyrimidin-2-yl]amino}phenyl)pyridin-2-yl]amino}cyclobutanecarboxylic acid] | < 100 |

| Compound | IC50 [nM] |
| --- | --- |
| Cc1cc(Nc2nccc(C(F)(F)F)n2)cc(-c2ccc([C@]3(O)CC[C@@H](C(=O)O)CC3)nc2)c1 [Example 9.34, cis-4-hydroxy-4-[5-(3-methyl-5-{[4-(trifluoromethyl)pyrimidin-2-yl]amino}phenyl)pyridin-2-yl]cyclohexanecarboxylic acid] | < 100 |
| Cc1cc(Nc2nccc(C(F)(F)F)n2)cc(-c2ccnc(NC3(CO)CC3)c2)c1 [Example 15.56, (1-{[4-(3-methyl-5-{[4-(trifluoromethyl)pyrimidin-2-yl]amino}phenyl)pyridin-2-yl]amino}cyclopropyl)methanol] | < 100 |
| Cc1cc(Nc2nccc(C(F)(F)F)n2)cc(-c2ccc(C(=O)NCc3ncc[nH]3)nc2)c1 [Example 16.53, N-(1H-imidazol-2-ylmethyl)-5-(3-methyl-5-{[4-(trifluoromethyl)pyrimidin-2-yl]amino}phenyl)pyridine-2-carboxamide] | 100 to 1000 |
| Cc1cc(Nc2nccc(C(F)(F)F)n2)cc(-c2ccc(N[C@@H](CCO)C(=O)O)nc2)c1 [Example 7.71, N-[5-(3-methyl-5-{[4-(trifluoromethyl)pyrimidin-2-yl]amino}phenyl)pyridin-2-yl]-L-homoserine] | < 100 |
| CSCC[C@H](Nc1ccc(-c2cc(C)cc(Nc3nccc(C(F)(F)F)n3)c2)cn1)C(=O)O [Example 7.95, N-[5-(3-methyl-5-{[4-(trifluoromethyl)pyrimidin-2-yl]amino}phenyl)pyridin-2-yl]-L-methionine] | < 100 |
| Cc1cc(Nc2nccc(C(F)(F)F)n2)cc(-c2ccc(N3CC(C4CCCC(C(=O)O)C4)C3)nc2)c1 (stereo not shown) [Example 7.146, 3-{1-[5-(3-methyl-5-{[4-(trifluoromethyl)pyrimidin-2-yl]amino}phenyl)pyridin-2-yl]azetidin-3-yl}cyclohexanecarboxylic acid] | < 100 |
| Cc1cc(Nc2nccc(C(F)(F)F)n2)cc(-c2ccc(NC(C)(C#N)C(C)(C)C)nc2)c1 (stereo not shown) [Example 18.3, 2,3,3-trimethyl-2-{[5-(3-methyl-5-{[4-(trifluoromethyl)pyrimidin-2-yl]amino}phenyl)pyridin-2-yl]amino}butanenitrile] | 100 to 1000 |
| Cc1cc(Nc2nccc(C(F)(F)F)n2)cc(-c2ccc(NC(C)(C#N)CC(F)(F)F)nc2)c1 (stereo not shown) [Example 7.117, 4,4,4-trifluoro-2-methyl-2-{[5-(3-methyl-5-{[4-(trifluoromethyl)pyrimidin-2-yl]amino}phenyl)pyridin-2-yl]amino}butanenitrile] | 100 to 1000 |
| COCC1CCN(c2ccc(-c3cc(C)cc(Nc4nccc(C(F)(F)F)n4)c3)cn2)C1 (stereo not shown) [Example 7.61, N-(3-{6-[3-(methoxymethyl)pyrrolidin-1-yl]pyridin-3-yl}-5-methylphenyl)-4-(trifluoromethyl)pyrimidin-2-amine] | 100 to 1000 |
| Cc1cc(Nc2nccc(C(F)(F)F)n2)cc(-c2ccnc(NC(C)(C)C(=O)O)c2)c1 [Example 15.43, 2-methyl-N-[4-(3-methyl-5-{[4-(trifluoromethyl)pyrimidin-2-yl]amino}phenyl)pyridin-2-yl]alanine] | < 100 |
| Cc1cc(Nc2nccc(C(F)(F)F)n2)cc(-c2ccc([C@]3(O)CC[C@@](C)(C(=O)O)CC3)nc2)c1 [Example 9.11, cis-4-hydroxy-1-methyl-4-[5-(3-methyl-5-{[4-(trifluoromethyl)pyrimidin-2-yl]amino}phenyl)pyridin-2-yl]cyclohexanecarboxylic acid] | < 100 |
| CCOC(=O)CCc1cccc(-c2cccc(Nc3nccc(C(F)(F)F)n3)c2)n1 [Example 2.14, ethyl 3-[6-(3-{[4-(trifluoromethyl)pyrimidin-2-yl]amino}phenyl)pyridin-2-yl]propanoate] | 1000 to 10000 |
| Cc1cc(Nc2nccc(C(F)(F)F)n2)cc(-c2ccc(CO)nc2)c1 [Example 4.7, [5-(3-methyl-5-{[4-(trifluoromethyl)pyrimidin-2-yl]amino}phenyl)pyridin-2-yl]methanol] | < 100 |
| Cc1cc(Nc2nccc(C(F)(F)F)n2)cc(-c2ccc(NC(C)(C)c3nc(=O)o[nH]3)nc2)c1 [Example 18.10, 3-(2-{[5-(3-Methyl-5-{[4-(trifluoromethyl)pyrimidin-2-yl]amino}phenyl)pyridin-2-yl]amino}propan-2-yl)-1,2,4-oxadiazol-5(4H)-one] | < 100 |
| Cc1cc(Nc2nccc(C(F)(F)F)n2)cc(-c2ccc(N3CCC[C@@H]3C(=O)O)nc2)c1 [Example 7.110, 1-[5-(3-methyl-5-{[4-(trifluoromethyl)pyrimidin-2-yl]amino}phenyl)pyridin-2-yl]-D-prolilne] | < 100 |
